Laboratory results taken from patent US12527754B2, “Methods and compositions for preventing and treating metabolic syndrome induced by antipsychotic treatment and related diseases and conditions” (Tufts Medical Center, Inc., priority 2018, dated 2026).

What was measured:
[1] = MetS induced by high-fat diet (HFD) in mice; format: in vivo; details: C57Bl/j male mice on HFD, benserazide 50 mg/day p.o., 12 weeks
Protocol: In other experiments, we conducted a pre-clinical trial of benserazide on the development of MetS induced by high-fat diet (HFD). HFD was fed to C57Bl/j male mice (6 weeks of age). Benserazide, 50 mg/day, p.o., was administered for 12 weeks (five days/week). Differences (p<0.05) were considered as statistically significant (Mann-Whitney two-tailed test).

[2] = C57BL female mice, N = 10; end of 10-week treatment
Protocol: (§1) C57BL female mice (n=10 mice in each group) were treated with olanzapine (4 mg/kg, po) (control) or with a combination of olanzapine (4 mg/kg, po) and benserazide (100 mg/day, po), 5 days per week for 10 weeks.
(§2) Body weight was checked two times per week. Glucose tolerance, a marker of IR, was determined by a glucose tolerance test (GTT) at the end of the study (day 71). In addition, blood samples were analyzed for cholesterol (total) and triglycerides.

[3] = GTT at day 71; C57BL female mice, N = 10
Protocol: as §1, §2

SMILES | Elevation of blood cholesterol induced by HFD, change ([1]; five days/week) | Elevation of triglycerides induced by HFD, change ([1]; five days/week) | Excessive weight gain induced by HFD, change ([1]; five days/week) | Glucose tolerance impairment induced by HFD ([1]; result in words) | Effect on weight gain induced by olanzapine (benserazide 100 mg/day po with olanzapine 4 mg/kg po, 10 weeks, result in words) | Cholesterol (total, blood) [2] | Triglycerides (blood) [2] | Glucose levels 90 minutes after ingestion of sugar [3] | Glucose levels baseline (before ingestion of sugar) [3] | Body weight, Day 1 (C57BL female mice, n = 10, olanzapine 4 mg/kg po with or without benserazide 100 mg/day po, 5 days per week for 10 weeks, Day 1) | Body weight, Day 71 (C57BL female mice, n = 10, olanzapine 4 mg/kg po with or without benserazide 100 mg/day po, 5 days per week for 10 weeks, Day 71)
NC(CO)C(=O)NNCc1ccc(O)c(O)c1O (centres unmarked) [Benserazide, seryl-(2,3,4-trihydroxybenzyl)-hydrazide] | −17% | −25% | −40% | attenuated | attenuated weight gain |  |  |  |  |  | 
Cc1cc2c(s1)Nc1ccccc1N=C2N1CCN(C)CC1 [Olanzapine] |  |  |  |  |  | 172.33 ± 4.536 | 151.00 ± 5.37 | 520.55 ± 15.63 | 183.25 ± 10.49 | 17.4 ± 0.13 | 34.0 ± 0.09
